The data set in a line: Test Example 2: emulsifiability of intermediate molecular weight fatty acid glycerides in water, test tube shaking. The format is physicochemical. As to conditions: 1 ml glyceride and 9 ml water; for stability of the emulsion (separation between oil and water): on standing; for Emulsifiability: test tube shaken. On the procedure:
1 ml of an intermediate molecular weight fatty acid glyceride and 9 ml of water were placed in a test tube, and the test tube was shaken lightly to examine the emulsifiability of the intermediate molecular weight fatty acid glyceride.
The intermediate molecular weight fatty acid glycerides examined in this Example were caprylic acid mono-, di- and tri- glycerides and caproic acid diglyceride.

This note sets out measurements from US4990337A (priority 1988, dated 1991).

`CCCCCCCC(=O)OCC(COC(=O)CCCCCCC)OC(=O)CCCCCCC` [Caprylic acid triglyceride]: the “stability of the emulsion (separation between oil and water)” value was “tended to separate into oil and water”; the Emulsifiability entry is recorded as “emulsified only after vigorous shaking by hand”.

In the case of Caprylic acid monoglyceride, the “stability of the emulsion (separation between oil and water)” value is reported as “the emulsion was very stable”; the Emulsifiability result is “emulsified in a manner very close to self-emulsification”.

Consider Caproic acid diglyceride, for which the Emulsifiability result is reported as “intermediate emulsifiability”.

Turning to caprylic acid diglyceride, the Emulsifiability result is recorded as “intermediate emulsifiability”.
